{"source": "patent US10383880B2", "about": "(Reset Therapeutics, Inc., priority 2012, dated 2019)"}
{"test_system": "Per2-dLuc U2OS reporter cells", "assay": "Per2 assay for evaluating the potency of test compounds (high-throughput circadian assay)", "assay_type": "cell-based", "conditions": "Homo sapiens, U2OS, stable U2OS reporter cells harboring Per2-dLuc; luminescence monitored over 4-5 days at 35° C.", "how_it_was_run": "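Compounds (0.5% DMSO final) were added right after serum-shock synchronization of Per2-dLuc U2OS reporter cells in minimal medium containing 1.0 mM beetle luciferin. Reporter luminescence was followed at 35 °C for 4–5 days to extract rhythm period, amplitude and phase, and EC50 values were obtained from these.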", "units": {"EC50": "µM"}}
{"compound": "O=S1(=O)CCCN1CC(O)Cn1c2cc(F)ccc2c2ccc(F)cc21", "note": "(stereo not shown) [Compound 92, N-(3-(2,7-Difluoro-9H-carbazol-9-yl)-2-hydroxypropyl)-isothiazolidine-1,1-dioxide]", "EC50": 0.04}
{"compound": "CC(O)(CNS(C)(=O)=O)Cn1c2ccc(F)cc2c2cc(F)ccc21", "note": "(stereo not shown) [Compound 152, N-(3-(3,6-Difluoro-9H-carbazol-9-yl)-2-hydroxy-2-methylpropyl)methanesulfonamide]", "EC50": 1.91}
{"compound": "COCCS(=O)(=O)N(Cc1ccco1)CC(O)Cn1c2ccccc2c2ccccc21", "note": "(stereo not shown) [Compound 11, N-(3-(9H-Carbazol-9-yl)-2-hydroxypropyl)-N-(furan-2-ylmethyl)-2-methoxyethanesulfonamide]", "EC50": 1.79}
{"compound": "O=S1(=O)CCCCN1CC(O)Cn1c2cc(F)ccc2c2ccc(F)cc21", "note": "(stereo not shown) [Compound 91, N-(3-(2,7-Difluoro-9H-carbazol-9-yl)-2-hydroxypropyl)-1,2-thiazinane 1,1-dioxide]", "EC50": 0.15}
{"compound": "CC(C)(C(O)Cn1c2ccccc2c2ccccc21)N1CCCS1(=O)=O", "note": "(stereo not shown) [Compound 243, 2-(4-(9H-Carbazol-9-yl)-3-hydroxy-2-methylbutan-2-yl)-isothiazolidine-1,1-dioxide]", "EC50": 0.042}
{"compound": "Cc1ccc(N(CC(O)Cn2c3ccccc3c3ccccc32)S(C)(=O)=O)cc1", "note": "(stereo not shown) [Compound 25, N-(3-(9H-Carbazol-9-yl)-2-hydroxypropyl)-N-p-tolylmethanesulfonamide]", "EC50": 0.17}
{"compound": "CS(=O)(=O)NCC(O)Cn1c2ccc(F)cc2c2cc(F)ccc21", "note": "(stereo not shown) [Compound 154, N-(3-(3,6-Difluoro-9H-carbazol-9-yl)-2-hydroxypropyl)methanesulfonamide]", "EC50": 0.68}
{"compound": "CC(O)(CN1CCCNS1(=O)=O)Cn1c2ccc(F)cc2c2cc(F)ccc21", "note": "(stereo not shown) [Compound 172, 2-(3-(3,6-Difluoro-9H-carbazol-9-yl)-2-hydroxy-2-methylpropyl)-1,2,6-thiadiazinane-1,1-dioxide]", "EC50": 0.375}
{"compound": "CCCN(CC(O)Cn1c2ccc(F)cc2c2cc(F)ccc21)S(C)(=O)=O", "note": "(stereo not shown) [Compound 153, N-(3-(3,6-Difluoro-9H-carbazol-9-yl)-2-hydroxypropyl)-N-propylmethanesulfonamide]", "EC50": 0.396}
{"compound": "CS(=O)(=O)N(CC(O)Cn1c2ccc(F)cc2c2cc(F)ccc21)c1ccc(-c2cc[nH]n2)cc1", "note": "(stereo not shown) [Compound 214, N-(4-(1H-Pyrazol-3-yl)phenyl)-N-(3-(3,6-difluoro-9H-carbazol-9-yl)-2-hydroxypropyl)methanesulfonamide]", "EC50": 6.56}
{"compound": "CS(=O)(=O)N(CC(O)Cn1c2ccccc2c2ccccc21)c1ccon1", "note": "(stereo not shown) [Compound 81, N-(3-(9H-Carbazol-9-yl)-2-hydroxypropyl)-N-(isoxazol-3-yl)methanesulfonamide]", "EC50": 0.964}
{"compound": "COc1cccc(N(CC(O)Cn2c3ccccc3c3ccccc32)S(C)(=O)=O)c1", "note": "(stereo not shown) [Compound 73, N-(3-(9H-Carbazol-9-yl)-2-hydroxypropyl)-N-(3-methoxyphenyl)methanesulfonamide]", "EC50": 2.99}
{"compound": "CS(=O)(=O)N(CC(O)Cn1c2ccc(F)cc2c2cc(F)ccc21)c1ccc(-n2cccn2)cc1", "note": "(stereo not shown) [Compound 213, N-(4-(1H-Pyrazol-1-yl)phenyl)-N-(3-(3,6-difluoro-9H-carbazol-9-yl)-2-hydroxypropyl)methanesulfonamide]", "EC50": 2.95}
{"compound": "O=S1(=O)N(CC(O)Cn2c3ccc(F)cc3c3cc(F)ccc32)CCCN1C1CCCC1", "note": "(stereo not shown) [Compound 220, 2-(3-(3,6-Difluoro-9H-carbazol-9-yl)-2-hydroxypropyl)-6-cyclopentyl-1,2,6-thiadiazinane-1,1-dioxide]", "EC50": 1.66}
{"compound": "CS(=O)(=O)NCC(O)Cn1c2ccccc2c2ccccc21", "note": "(stereo not shown) [Compound 113, N-(3-(9H-Carbazol-9-yl)-2-hydroxypropyl)methanesulfonamide]", "EC50": 0.123}
{"compound": "CC(O)(CN(Cc1ccco1)S(C)(=O)=O)Cn1c2ccccc2c2ccccc21", "note": "(stereo not shown) [Compound 240, N-(3-(9H-Carbazol-9-yl)-2-hydroxy-2-methylpropyl)-N-(furan-2-yl-methyl)methane-sulfonamide]", "EC50": 1.06}
{"compound": "Cc1ccccc1N(CC(O)Cn1c2ccccc2c2ccccc21)S(C)(=O)=O", "note": "(stereo not shown) [Compound 62, N-(3-(9H-Carbazol-9-yl)-2-hydroxypropyl)-N-o-tolylmethanesulfonamide]", "EC50": 1.33}
{"compound": "CCN1CCCN(CC(C)(O)Cn2c3ccc(F)cc3c3cc(F)ccc32)S1(=O)=O", "note": "(stereo not shown) [Compound 227, 2-(3-(3,6-Difluoro-9H-carbazol-9-yl)-2-hydroxy-2-methylpropyl)-6-ethyl-1,2,6-thiadiazinane-1,1-dioxide]", "EC50": 5.29}
{"compound": "CS(=O)(=O)N(CC(O)Cn1c2ccccc2c2ccccc21)CC1CCCO1", "note": "(stereo not shown) [Compound 51, N-(3-(9H-Carbazol-9-yl)-2-hydroxypropyl)-N-((tetrahydrofuran-2-yl)methyl)methanesulfonamide]", "EC50": 0.371}
{"compound": "CS(=O)(=O)N(CC(O)Cn1c2ccccc2c2ccccc21)c1cccc2ccccc12", "note": "(stereo not shown) [Compound 27, N-(3-(9H-Carbazol-9-yl)-2-hydroxypropyl)-N-(naphthalen-1-yl)methanesulfonamide]", "EC50": 0.25}
{"compound": "CS(=O)(=O)N(CC(O)Cn1c2ccc(F)cc2c2ccc(F)cc21)C1CC1", "note": "(stereo not shown) [Compound 167, N-Cyclopropyl-N-(3-(2,6-difluoro-9H-carbazol-9-yl)-2-hydroxypropyl)methanesulfonamide]", "EC50": 0.267}
{"compound": "CC1(N(CC(O)Cn2c3ccc(F)cc3c3cc(F)ccc32)S(C)(=O)=O)CCC1", "note": "(stereo not shown) [Compound 186, N-(3-(3,6-Difluoro-9H-carbazol-9-yl)-2-hydroxypropyl)-N-(1-methylcyclobutyl)methanesulfonamide]", "EC50": 0.083}
{"compound": "CS(=O)(=O)N(Cc1ccco1)CC(O)Cn1c2cc(F)ccc2c2ccc(F)cc21", "note": "(stereo not shown) [Compound 93, N-(3-(2,7-Difluoro-9H-carbazol-9-yl)-2-hydroxypropyl)-N-(furan-2-ylmethyl)methanesulfonamide]", "EC50": 2.89}
{"compound": "COC1CN(CC(C)(O)Cn2c3ccc(F)cc3c3cc(F)ccc32)S(=O)(=O)C1", "note": "(stereo not shown) [Compound 182, 2-(3-(3,6-Difluoro-9H-carbazol-9-yl)-2-hydroxy-2-methylpropyl)-4-methoxyisothiazolidine-1,1-dioxide]", "EC50": 0.241}
{"compound": "CCN1CCN(CC(C)(O)Cn2c3ccc(F)cc3c3cc(F)ccc32)S1(=O)=O", "note": "(stereo not shown) [Compound 219]", "EC50": 1.57}
{"compound": "CC(O)(CN(C1(C)CCC1)S(C)(=O)=O)Cn1c2ccc(F)cc2c2cc(F)ccc21", "note": "(stereo not shown) [Compound 187, N-(3-(3,6-Difluoro-9H-carbazol-9-yl)-2-hydroxy-2-methylpropyl)-N-(1-methylcyclobutyl)methanesulfonamide]", "EC50": 2.75}
{"compound": "CS(=O)(=O)N(CC(O)Cn1c2ccccc2c2ccccc21)C1CCCCC1", "note": "(stereo not shown) [Compound 71, N-(3-(9H-Carbazol-9-yl)-2-hydroxypropyl)-N-cyclohexylmethanesulfonamide]", "EC50": 3.3}
{"compound": "CS(=O)(=O)N(CC(O)Cn1c2ccc(F)cc2c2cc(F)ccc21)C1CC1", "note": "(stereo not shown) [Compound 118, N-Cyclopropyl-N-(3-(3,6-difluoro-9H-carbazol-9-yl)-2-hydroxypropyl)methanesulfonamide]", "EC50": 0.081}
{"compound": "CCOc1ccc(N(CC(O)Cn2c3ccc(F)cc3c3cc(F)ccc32)S(C)(=O)=O)cc1", "note": "(stereo not shown) [Compound 202, N-(3-(3,6-Difluoro-9H-carbazol-9-yl)-2-hydroxypropyl)-N-(4-ethoxyphenyl)methanesulfonamide]", "EC50": 2.1}
{"compound": "CC1(N(CC(O)Cn2c3ccc(F)cc3c3cc(F)ccc32)S(C)(=O)=O)CCCC1", "note": "(stereo not shown) [Compound 196, N-(3-(3,6-Difluoro-9H-carbazol-9-yl)-2-hydroxypropyl)-N-(1-methylcyclopentyl)methanesulfonamide]", "EC50": 0.149}
{"compound": "O=S1(=O)CCCN1C[C@@H](O)Cn1c2ccccc2c2ccccc21", "note": "[Compound 39, (S)-N-(3-(9H-Carbazol-9-yl)-2-hydroxypropyl)isothiazolidine 1,1-dioxide]", "EC50": 0.021}
{"compound": "CS(=O)(=O)N(CC(O)Cn1c2ccccc2c2ccccc21)C1CCC1", "note": "(stereo not shown) [Compound 57, N-(3-(9H-Carbazol-9-yl)-2-hydroxypropyl)-N-cyclobutylmethanesulfonamide]", "EC50": 0.035}
{"compound": "O=S(=O)(CC1CCOC1)N(Cc1ccco1)CC(O)Cn1c2ccccc2c2ccccc21", "note": "(stereo not shown) [Compound 17, N-(3-(9H-Carbazol-9-yl)-2-hydroxypropyl)-N-(furan-2-ylmethyl)-1-(tetrahydrofuran-3-yl)methanesulfonamide]", "EC50": 2.49}
{"compound": "CC(O)(Cn1c2ccc(F)cc2c2cc(F)ccc21)C(C)(C)N1CCCS1(=O)=O", "note": "(stereo not shown) [Compound 245, 2-(4-(3,6-Difluoro-9H-carbazol-9-yl)-3-hydroxy-2,3-dimethylbutan-2-yl)-isothiazolidine-1,1-dioxide]", "EC50": 1.15}
{"compound": "CS(=O)(=O)N(CC(O)Cn1c2ccccc2c2ccccc21)CC1CC2CCC1O2", "note": "(single isomer, unassigned) [Compound 69, N-(7-Oxabicyclo[2.2.1]heptan-2-ylmethyl)-N-(3-(9H-carbazol-9-yl)-2-hydroxypropyl)methanesulfonamide]", "EC50": 0.759}
{"compound": "O=S(=O)(c1cn[nH]c1)N(Cc1ccco1)CC(O)Cn1c2ccccc2c2ccccc21", "note": "(stereo not shown) [Compound 5, N-(3-(9H-Carbazol-9-yl)-2-hydroxypropyl)-N-(furan-2-ylmethyl)-1H-pyrazole-4-sulfonamide]", "EC50": 8.19}
{"compound": "O=S1(=O)C(F)CCCN1CC(O)Cn1c2ccccc2c2ccccc21", "note": "(stereo not shown) [Compound 121, 2-(3-(9H-Carbazol-9-yl)-2-hydroxypropyl)-6-fluoro-1,2-thiazinane-1,1-dioxide]", "EC50": 0.051}
{"compound": "CS(=O)(=O)N(CC(O)Cn1c2ccccc2c2ccccc21)C1CC(F)(F)C1", "note": "(stereo not shown) [Compound 133, N-(3-(9H-Carbazol-9-yl)-2-hydroxypropyl)-N-(3,3-difluorocyclobutyl)methanesulfonamide]", "EC50": 1.53}
{"compound": "CC(O)(CN(c1ccccc1)S(C)(=O)=O)Cn1c2ccc(F)cc2c2cc(F)ccc21", "note": "(stereo not shown) [Compound 215, N-(3-(3,6-Difluoro-9H-carbazol-9-yl)-2-hydroxy-2-methylpropyl)-N-phenylmethanesulfonamide]", "EC50": 7.88}
{"compound": "O=S1(=O)CCCN1CC(O)Cn1c2cccc(F)c2c2c(F)cccc21", "note": "(stereo not shown) [Compound 106, N-(3-(4,5-Difluoro-9H-carbazol-9-yl)-2-hydroxypropyl)-isothiazolidine-1,1-dioxide]", "EC50": 8.6}
